Test results from publication PMC10568461, “A pilot study of cerebral metabolism and serotonin 5-HT2A receptor occupancy in rats treated with the psychedelic tryptamine DMT in conjunction with the MAO inhibitor harmine” (Frontiers in Pharmacology, 2023).
Several values for one entry are separate records, joined by “and”; a condition that tells them apart may be missing. Equal values may be shown once.

Assays:
brain glucose metabolism = test: [^18F]FDG-PET of cerebral glucose metabolism (experiment 1); format: in vivo, rat; conditions: for [^18F]FDG-PET SUV normalized to whole-brain uptake (SUVglob): 1 mg/kg s.c.; for [^18F]FDG-PET SUV normalized to whole-brain uptake (SUVglob) / [^18F]FDG-PET glucose normalized SUV (SUVgluc): mean (SD)
Experimental: The dynamic PET recordings were histogrammed into six frames of 5 minutes each, and reconstructed with attenuation, decay, and scatter correction using the OSEM3D/SP-MAP algorithm (2 x OSEM iterations and 18 x MAP iterations) with a matrix size of 128 × 128 pixels, resulting in a final target resolution of 0.8 mm/pixel. Pre-processing of PET scans was performed using PMOD v4.2 (PMOD Technologies LLC, Zurich, Switzerland). The [^18F]FDG images were averaged across the six frames and then converted into standardized uptake values (SUV), whereupon the image was cropped to the head of the animal and automatically co-registered to a standard [^18F]FDG-PET template. We used Schiffer’s atlas ([Schiffer et al., 2006]) for parcellation of bilateral brain regions within the cortico-striato-thalamo-cortical (CSTC) circuit, i.e. bilateral nucleus accumbens (NAc), medial prefrontal cortex (mPFC), orbitofrontal cortex (OFC), hippocampus, striatum, thalamus, visual cortex, cerebellum as a comparator region, and whole brain. We selected these regions from the CSTC circuit based on a conceptual model holding that the thalamus acts as a filter/gatekeeper of sensory information, broadcasting to cortical regions that subserve conscious experience ([Wang et al., 2006]; [McAlonan et al., 2008]). Perturbation of this CSTC circuit is implicated in the action of psychedelic compounds ([Geyer and Vollenweider, 2008]; [Preller et al., 2019]). We scaled individual regional SUV results to the mean blood glucose levels measured during the recording session (SUVgluc) and to the global [^18F]FDG uptake (SUVglob).

MAO-A [1] = biological target: T1, MAO-A (Rattus norvegicus, UniProt P21396); test: MAO-A inhibition in living brain inferred from cerebral 3-IAA; format: in vivo; conditions: Experiment 1, harmine 1 mg/kg with DMT; suggested by lower cerebral 3-IAA
T1 sequence (P21396 1-526): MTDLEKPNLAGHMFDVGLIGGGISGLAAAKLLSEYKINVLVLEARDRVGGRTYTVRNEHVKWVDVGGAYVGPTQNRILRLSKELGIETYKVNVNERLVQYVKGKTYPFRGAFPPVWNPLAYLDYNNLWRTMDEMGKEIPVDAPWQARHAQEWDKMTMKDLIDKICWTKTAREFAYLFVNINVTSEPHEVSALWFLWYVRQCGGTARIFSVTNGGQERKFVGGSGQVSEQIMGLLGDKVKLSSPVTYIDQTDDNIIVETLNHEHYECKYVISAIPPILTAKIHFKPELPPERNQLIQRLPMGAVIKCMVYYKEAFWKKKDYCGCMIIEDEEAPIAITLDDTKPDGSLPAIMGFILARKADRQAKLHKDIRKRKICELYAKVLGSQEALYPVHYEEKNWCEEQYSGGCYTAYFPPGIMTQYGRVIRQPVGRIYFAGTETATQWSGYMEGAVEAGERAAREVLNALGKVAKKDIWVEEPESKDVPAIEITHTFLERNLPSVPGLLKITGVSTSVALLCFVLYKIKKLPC

rats = test: Behavioural observations in treated rats; format: in vivo, rat; conditions: not systematically assessed
MAO-A [2] = biological target: T1, MAO-A; test: Apparent affinity at MAO binding sites in living brain; format: in vivo; conditions: extrapolated from the 150-fold in vitro/in vivo difference of [^18F]fluoroethyl-harmol; read-out: Predicted apparent affinity for MAO-A in living brain
[3] = set-up: method as in ref Guan et al., 2001; Li et al., 2017; Wang et al., 2019; Brito-da-Costa et al., 2020; conditions: rats, 0.5 to 3.3 mg/kg i.v. and 20–40 mg/kg p.o.; ref Guan et al., 2001; Li et al., 2017; Wang et al., 2019; Brito-da-Costa et al., 2020; cited from earlier work
[4] = Brain concentrations of harmine, DMT and metabolites by UHPLC-MS after s.c. harmine and/or DMT; conditions: rat, subcutaneous
Experimental: Groups of (n = 6) rats received either saline, harmine (1 mg/kg), DMT (1 mg/kg), or harmine + DMT (1 mg/kg each) as subcutaneous injections, as indicated in Figure 1.
After 45 min, rats were sacrificed by decapitation, and the brains dissected into cerebellum and frontal cortex samples for radioactivity measurement and chemical analysis, thus 65 min after harmine + DMT.

COc1ccc2c(c1)[nH]c1c(C)nccc12 [harmine]
Qualitative effect on brain [^18F]FDG uptake (SUVglob maps) (brain glucose metabolism; 1 mg/kg, separately or in combination): no conspicuous effects | Thalamus SUVglob versus vehicle group (Dunn's post hoc test) (brain glucose metabolism; 1 mg/kg, Z = −2.66, p = 0.047): significantly different from the vehicle group | [^18F]FDG-PET SUV normalized to whole-brain uptake (SUVglob) (brain glucose metabolism; NAc): 6.23 (0.18) SUV | [^18F]FDG-PET glucose normalized SUV (SUVgluc) (brain glucose metabolism; NAc, 1 mg/kg): 6.4 (1.05) SUV | [^18F]FDG-PET SUV normalized to whole-brain uptake (SUVglob) (brain glucose metabolism; OFC): 6.5 (0.44) SUV | [^18F]FDG-PET glucose normalized SUV (SUVgluc) (brain glucose metabolism; OFC, 1 mg/kg): 6.71 (1.33) SUV | [^18F]FDG-PET SUV normalized to whole-brain uptake (SUVglob) (brain glucose metabolism; cerebellum): 4.52 (0.15) SUV | [^18F]FDG-PET glucose normalized SUV (SUVgluc) (brain glucose metabolism; cerebellum, 1 mg/kg): 4.62 (0.67) SUV | [^18F]FDG-PET SUV normalized to whole-brain uptake (SUVglob) (brain glucose metabolism; hippocampus): 5.32 (0.23) SUV | [^18F]FDG-PET glucose normalized SUV (SUVgluc) (brain glucose metabolism; hippocampus, 1 mg/kg): 5.44 (0.77) SUV | [^18F]FDG-PET SUV normalized to whole-brain uptake (SUVglob) (brain glucose metabolism; mPFC): 7.09 (0.32) SUV | [^18F]FDG-PET glucose normalized SUV (SUVgluc) (brain glucose metabolism; mPFC, 1 mg/kg): 7.28 (1.18) SUV | [^18F]FDG-PET SUV normalized to whole-brain uptake (SUVglob) (brain glucose metabolism; striatum): 6.99 (0.12) SUV | [^18F]FDG-PET glucose normalized SUV (SUVgluc) (brain glucose metabolism; striatum, 1 mg/kg): 7.19 (1.21) SUV | [^18F]FDG-PET SUV normalized to whole-brain uptake (SUVglob) (brain glucose metabolism; thalamus): 6.54 (0.13) SUV | [^18F]FDG-PET glucose normalized SUV (SUVgluc) (brain glucose metabolism; thalamus, 1 mg/kg): 6.73 (1.15) SUV | [^18F]FDG-PET SUV normalized to whole-brain uptake (SUVglob) (brain glucose metabolism; visual cortex): 6.1 (0.24) SUV | [^18F]FDG-PET glucose normalized SUV (SUVgluc) (brain glucose metabolism; visual cortex, 1 mg/kg): 6.29 (1.15) SUV | [^18F]FDG-PET glucose normalized SUV (SUVgluc) (brain glucose metabolism; whole brain, 1 mg/kg): 5.69 (0.93) SUV | Inhibition of MAO-A in living brain (MAO-A [1]): 50% | Behaviour and anesthesia requirement of treated rats (rats): calmer and needed less isoflurane to sustain anesthesia | Kd (MAO-A [2]): ~300 nM | Plasma half-life [3]: 3.5 h | concentration at 100 min ([4]; brain, 1 mg/kg, Brain harmine concentration, at 100 min after treatment with 1 mg/kg): ~1000 nM | concentration at 95 min ([4]; brain, 1 mg/kg, Mean concentration in brain tissue, Experiment 1, after harmine alone (1 mg/kg)): 116 ng/g and 550 nM | concentration at 70 min ([4]; brain, 3 mg/kg, Brain harmine concentration, at 70 min after the higher dose (3 mg/kg)): ~2000 nM | concentration at 65 min ([4]; brain, Mean brain concentration, Experiment 2, harmine + DMT (3 mg/kg each)): 424 ng/g and 2 µM | concentration at 95 min ([4]; brain, Mean concentration in brain tissue, Experiment 1, after harmine + DMT (1 mg/kg each)): 257 ng/g and 1.21 µM | concentration at 95 min ([4]; cerebellum, 1 mg/kg, Brain concentration, Experiment 1, cerebellum, group DMT (1 mg/kg s.c.), 95 min, mean (SD)): 13.6 ng/g | concentration at 95 min ([4]; cerebellum, Brain concentration, Experiment 1, cerebellum, group Har (harmine 1 mg/kg s.c.), 95 min after drug, mean (SD)): 104 ng/g | concentration at 95 min ([4]; cerebellum, Brain concentration, Experiment 1, cerebellum, group Har + DMT (1 mg/kg each s.c.), 95 min, mean (SD)): 189 ng/g | concentration at 65 min ([4]; cerebellum, Brain concentration, Experiment 2, cerebellum, group Har + DMT (3 mg/kg each s.c.), 65 min, mean (SD)): 412 ng/g | concentration at 95 min ([4]; frontal cortex, 1 mg/kg, Brain concentration, Experiment 1, frontal cortex, group DMT (1 mg/kg s.c.), 95 min, mean (SD)): 20.1 ng/g | concentration at 95 min ([4]; frontal cortex, Brain concentration, Experiment 1, frontal cortex, group Har (harmine 1 mg/kg s.c.), 95 min, mean (SD)): 128 ng/g | concentration at 95 min ([4]; frontal cortex, Brain concentration, Experiment 1, frontal cortex, group Har + DMT (1 mg/kg each s.c.), 95 min, mean (SD)): 326 ng/g | concentration at 65 min ([4]; frontal cortex, Brain concentration, Experiment 2, frontal cortex, group Har + DMT (3 mg/kg each s.c.), 65 min, mean (SD)): 436 ng/g
